In patent publication US6306881A, “Anti-inflammatory agents” (British Biotech Pharmaceuticals, priority 1998, dated 2001):

Legend:
LTA4-hydrolase = target: T1, LTA4-hydrolase (Rattus norvegicus, UniProt P30349); assay: Inhibition of LTA4 hydrolase activity (LTB4 formation by radioimmunoassay); format: biochemical; settings: crude fraction from rat lung, 1 minute at 37° C.
T1 construct: was prepared as a crude fraction from rat lung tissue; from tissue; host or cells: rat lung tissue, crude fraction
T1 sequence (P30349 1-611): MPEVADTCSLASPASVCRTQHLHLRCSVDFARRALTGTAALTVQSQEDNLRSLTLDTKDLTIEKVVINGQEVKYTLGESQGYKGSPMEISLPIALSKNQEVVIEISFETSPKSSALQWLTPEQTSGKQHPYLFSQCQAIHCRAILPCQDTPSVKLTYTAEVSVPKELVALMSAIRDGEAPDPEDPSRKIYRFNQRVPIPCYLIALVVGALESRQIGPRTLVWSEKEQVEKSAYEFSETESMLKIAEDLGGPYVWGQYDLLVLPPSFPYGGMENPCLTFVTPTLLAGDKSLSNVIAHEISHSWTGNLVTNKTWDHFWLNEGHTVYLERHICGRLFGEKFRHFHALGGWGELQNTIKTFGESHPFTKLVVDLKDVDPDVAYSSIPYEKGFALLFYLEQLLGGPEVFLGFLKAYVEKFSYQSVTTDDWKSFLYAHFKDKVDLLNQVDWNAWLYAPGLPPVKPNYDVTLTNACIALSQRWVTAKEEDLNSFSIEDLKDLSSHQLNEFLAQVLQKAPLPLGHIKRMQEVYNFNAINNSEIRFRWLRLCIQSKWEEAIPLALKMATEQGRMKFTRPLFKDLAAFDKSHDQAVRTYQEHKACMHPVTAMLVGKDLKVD
Protocol: LTA4 -hydoiase was prepared as a crude fraction from rat lung tissue. The sodium salt of LTA4 was incubated with the enzyme and test compounds at 10 μM for 1 minute at 37° C. The reaction was terminated by the addition of ice-cold methanol. Formation of LTB4 was assessed by radioimmunoassay. Results are expressed as a percentage inhibition of LTA4 hydrolase activity.

[1] = test system: Leukotriene Synthesis by Rat Basophilic Leukaemia Cells; assay: Inhibition of Leukotriene Synthesis by Rat Basophilic Leukaemia Cells (RBL-1, A23187 stimulated, LTB4); format: cell-based; settings: RBL-1 cells, 4.75 hours preincubation, 10 μM A23187, 15 minutes at 37° C., value estimated, read-out: IC50 (leukotriene B4 synthesis)
Protocol: Inhibition of Leukotriene Synthesis by Rat Basophilic Leukaemia Cells
The rat basophilic leukaemia cell line RBL-1 was obtained from ATCC or ECACC and cultured in Dulbecco's modified Eagle's medium (DMEM) supplemented with 10% foetal bovine serum, non-essential amino acids, sodium pyruvate, penicillin, streptomycin and 2mM glutamine, at 37° C. in an atmosphere of 5% CO2 in air, as recommended by the culture collection.
RBL-1 cells were harvested during log growth, washed and resuspended in Hanks Balanced Salt Solution, without calcium chloride and magnesium chloride, supplemented with 10% foetal bovine serum and penicillin, streptomycin, and 2mM glutamine and adjusted to a final cell concentration of 1.25×10^5 cells/ml. Cells incubated in the presence of the appropriate concentration of inhibitor or vehicle for 4.75 hours at 37° C. Cells then transferred to ice for 15 minutes. Cells washed by centrifugation and resuspension in prechilled Phosphate Buffered Saline, with calcium chloride and magnesium chloride, supplemented with the appropriate concentration of test sample. […]
Treated cells then exposed to 10 μM A23187 for 15 minutes at 37° C. […] The levels of leukotriene B4 then determined in the cell free supernatant using the Leukotriene B4 [^3 H] assay system from Amersham Pharmacia Biotech.

male Lewis rats = assay: Rat Adjuvant Arthritis Model; format: in vivo; settings: Day 10 to Day 21, vs vehicle, P<0.05
Protocol: Rat Adjuvant Arthritis Model
Adjuvant arthritis was induced in male Lewis rats on Day 0, using a suspension of mycobacterium butyncum in mineral oil, inoculated subcutaneously, into the base of the tail. The volume of the hind paws was measured regularly to assess the time course of disease progression. […] Nine animals were allocated to each group. Animals received their first treatment on Day 10, either vehicle (2% DMSO in PBSiTween (0.01%v/v)) or test compound, formulated as a suspension in the vehicle. Treatment was administered as an intraperitoneal bolus injection, once daily, for the duration of the study. The study was ended on Day 21. The percent increase in mean paw volume from Day 10 to Day 21 was calculated for each animal and the compound treated groups compared to the vehicle treated control group.

LTA4 hydrolase = settings: isolated enzyme; T. D. Penning et al, 1995; cited from earlier work
cells = settings: cited from earlier work

Row | Structure (SMILES) | inhibition at 10 µM (LTA4-hydrolase) [%] | IC50 [1] [nM] | inhibition of paw swelling (male Lewis rats; 30mg/kg i.p. once daily) [%] | inhibition of paw swelling (male Lewis rats; 100mg/kg i.p. once daily) [%] | LTA4 hydrolase inhibitory activity (LTA4 hydrolase) | ability to penetrate cells (cells)
1 | C=CC[C@H](C(=O)NO)[C@@H](CC(C)C)C(=O)N[C@@H](Cc1ccccc1)C(=O)OC1CCCC1 [Example 19, 2S-(3S-Hydroxycarbamoyl-2R-isobutyl-hex-5-enoylamin)-3-phenylpropionic acid cyclopentyl ester] | 78 | 2 | 60 | 77 |  | 
2 | C=CC[C@H](C(=O)NO)[C@@H](CC(C)C)C(=O)N[C@H](C(=O)OC1CCCC1)c1ccccc1 [Example 40, 2S-(3S-Hydroxycarbamoyl-2R-isobutyl-hex-5-enoylamino)-2-phenylethanoic acid cyclopentyl ester] | 75 |  |  |  |  | 
3 | CC(C)C[C@H](NC(=O)[C@@H](O)[C@H](N)Cc1ccccc1)C(=O)O [bestatin] |  |  |  |  | exhibit LTA4 hydrolase inhibitory activity against isolated enzyme | unable to effectively penetrate cells
4 | C[C@H](CS)C(=O)N1CCC[C@H]1C(=O)O [captopril] |  |  |  |  | exhibit LTA4 hydrolase inhibitory activity against isolated enzyme | unable to effectively penetrate cells
5 | C[C@H](NC(=O)[C@@H](CC(=O)NO)Cc1ccccc1)C(=O)O [kelatorphan] | 80 | 350 |  |  | exhibit LTA4 hydrolase inhibitory activity against isolated enzyme | unable to effectively penetrate cells
